Results from patent US10494384B2, “Urea peptoid boric acid compound, pharmaceutical composition thereof, preparation method therefor, and uses thereof” (Peking University, priority 2015, dated 2019).
Read-outs that look alike come from different tables or passages of the source.

How the values were obtained:
[1] = tested on: Hela, human cervical carcinoma; test: preliminary anti-tumor screening in vitro, MTT method; format: cell-based; details: read-out: inhibition rates (%) Hela
Experimental: (§1) The test methods used in this test example are routine methods for anti-tumor activities test in pharmaceutical area, for example, referring to the following reference: (J. Immunol Method, 1983, 65, 55).
(§2) Test models: A: MTT method (Hela, human cervical carcinoma); B: SRB method (BGC-823, […]); C: SRB method (MCF-7, breast cancer); D: SRB method (A549, human lung cancer); E: SRB method (PC3M1E8, prostate cancer).
(§3) Inhibition rates of the compounds were measured under concentrations of 0.1 μM, 1 μM or 10 μM.

[2] = biological target: T1, 20S proteasome extracted from rat liver (CT-L) (Rattus norvegicus, UniProt P18421+P28075); test: inhibition of 20S proteasome, CT-L activity (fluorescent peptide); format: biochemical; details: for inhibition at 0.2 µM / inhibition at 2 µM / inhibition at 20 µM: rat liver 20S proteasome, 37° C., 1 h, read-out: inhibition rates (%) CT-L
T1 construct: 20S proteasome extracted from rat liver; from tissue; host or cells: rat liver
Experimental: (§4) 1 μg of 20S proteasome extracted from rat liver was incubated with a 100 μL solution containing various concentrations of the present compounds, 50 μM fluorescent peptides and 20 mM Tris-HCl at 37° C. for 1 h, respectively. […] 0.1% DMSO was used as a solvent control. Compared with the fluorescence of solvent control, an inhibition rate or IC50 value was calculated.

[3] = biological target: T2, 20S proteasome extracted from rat liver (T-L) (Rattus norvegicus, UniProt P40112+Q9JHW0); test: inhibition of 20S proteasome, T-L activity (fluorescent peptide); format: biochemical; details: for inhibition at 0.2 µM / inhibition at 2 µM / inhibition at 20 µM: 37° C., 1 h, read-out: inhibition rates (%) T-L
T2 construct: 20S proteasome extracted from rat liver; from tissue; host or cells: rat liver
Experimental: as §4

[4] = biological target: T3, 20S proteasome extracted from rat liver (PGPH) (Rattus norvegicus, UniProt P28073+Q9JHW0); test: inhibition of 20S proteasome, PGPH activity (fluorescent peptide); format: biochemical; details: for inhibition at 0.2 µM / inhibition at 2 µM / inhibition at 20 µM: rat liver 20S proteasome, 37° C., 1 h, read-out: inhibition rates (%) PGPH
T3 construct: 20S proteasome extracted from rat liver; from tissue; host or cells: rat liver
Experimental: as §4

[5] = tested on: MCF-7, breast cancer; test: preliminary anti-tumor screening in vitro, SRB method; format: cell-based; details: Homo sapiens, read-out: inhibition rates (%) MCF-7; for inhibition at 0.1 µM: MCF7, 0.1 μM; for inhibition at 1 µM: MCF7, 1 μM; for inhibition at 10 µM: MCF7, 10 μM
Experimental: as §1, §2, §3

[6] = tested on: A549, human lung cancer; test: as above; format: cell-based; details: read-out: inhibition rates (%) A549
Experimental: as §1, §2, §3

[7] = tested on: BGC-823, liver cancer; test: as above; format: cell-based; details: Homo sapiens, read-out: inhibition rates (%) BGC-823
Experimental: as §1, §2, §3

Row | SMILES | inhibition at 0.1 µM [1] [%] | inhibition at 1 µM [1] [%] | inhibition at 10 µM [1] [%] | inhibition at 0.2 µM [2] [%] | inhibition at 2 µM [2] [%] | inhibition at 20 µM [2] [%] | inhibition at 0.2 µM ([3]; rat liver 20S proteasome) [%] | inhibition at 2 µM ([3]; rat liver 20S proteasome) [%] | inhibition at 20 µM ([3]; rat liver 20S proteasome) [%] | inhibition at 0.2 µM [4] [%] | inhibition at 2 µM [4] [%] | inhibition at 20 µM [4] [%] | inhibition at 0.1 µM [5] [%] | inhibition at 1 µM [5] [%] | inhibition at 10 µM [5] [%] | inhibition at 0.1 µM [6] [%] | inhibition at 1 µM [6] [%] | inhibition at 10 µM [6] [%] | IC50 [2] [nM] | IC50 [4] [nM] | also measured
1 | CC(C)C[C@H](NC(=O)[C@H](Cc1ccccc1)NC(=O)Nc1cccc(OCc2ccccc2)c1)B(O)O [Example 16, N-L-phenylalanyl-L-leucine borate-N′-(3-benzyloxy-phenylamine)-urea] | 9.91 | 34.1 | 39.6 | -14.6 | 86.6 | 94.5 | -2.89 | 12.3 | 62.2 | -14.4 | -2.93 | 92.4 | 6.62 | 27.2 | 51.4 | 5 | 36.2 | 65 |  |  | inhibition at 0.1 µM [7]: 6.01%; inhibition at 1 µM [7]: 34%; inhibition at 10 µM [7]: 48.7%
2 | CC(C)C[C@H](NC(=O)[C@H](Cc1ccccc1)NC(=O)NCc1cnccn1)B(O)O [Example 2, N-L-phenylalanyl-L-leucine borate-N′-pyrazin-2-ylmethylamine-urea] |  |  |  |  |  |  |  |  |  |  |  |  |  |  |  |  |  |  | 50 | 790 | IC50 [3]: 11.4 µM
3 | CC(C)C[C@H](NC(=O)[C@H](Cc1ccccc1)NC(=O)[C@H](Cc1ccccc1)NC(=O)Nc1cccc(OCc2ccccc2)c1)B(O)O [Example 23, N-L-phenylalanyl-L-phenylalanyl-L-leucine borate-N′-(3-benzyloxy-phenylamine)-urea] | 17.4 | 42.5 | 75.7 | 49.5 | 91 | 94.2 | -0.748 | 47.2 | 90.5 | -13.7 | -20.5 | -20.3 | 23.7 | 56 | 73 | 32.7 | 68.8 | 81.3 |  |  | inhibition at 0.1 µM [7]: 43.2%; inhibition at 1 µM [7]: 42.7%; inhibition at 10 µM [7]: 81.6%
4 | CC(C)C[C@H](NC(=O)[C@H](Cc1ccccc1)NC(=O)NCCc1ccccc1)B(O)O [Example 25, N-L-phenylalanyl-L-leucine borate-N′-phenylethylamine-urea] |  |  |  |  |  |  |  |  |  |  |  |  |  |  |  |  |  |  | 20 | 240 | IC50 [3]: 1.05 µM
5 | CC(C)C[C@H](NC(=O)[C@H](Cc1ccccc1)NC(=O)N1CCc2ccccc2C1=O)B(O)O [Example 37, N-(1-oxo-1,2,3,4-dihydroisoquinolin-2-ylformyl)-L-phenylalanyl-L-leucine borate] |  |  |  |  |  |  |  |  |  |  |  |  |  |  |  |  |  |  | 660 | 1240 | IC50 ([3]; rat liver 20S proteasome, read-out: IC50 (μM) T-L): > 20 µM
6 | CC(C)C[C@H](NC(=O)N[C@@H](CC(C)C)C(=O)N[C@@H](CC(C)C)C(=O)Nc1cnccn1)B(O)O [Example 11, N-L-leucine borate-N′-(pyrazin-2-ylcarbamoyl)-L-leucyl-L-leucine-urea] | 2.45 | 6.1 | 19.2 | 5.79 | 52.8 | 92.5 | -8.06 | -5.63 | 25.2 | 12.8 | 32.6 | 81 | 4.81 | 7.23 | 16.1 | -4.49 | 0.81 | 26.6 |  |  | inhibition at 0.1 µM [7]: 6.32%; inhibition at 1 µM [7]: 4.58%; inhibition at 10 µM [7]: 13.1%
7 | CC(C)C[C@H](NC(=O)[C@H](Cc1ccccc1)NC(=O)NCc1cc(Cl)ccc1Cl)B(O)O [Example 31, N-L-phenylalanyl-L-leucine borate-N′-2,5-dichloro-benzylamine-urea] |  |  |  |  |  |  |  |  |  |  |  |  |  |  |  |  |  |  | 40 | 480 | IC50 [3]: 0.53 µM
